# PMC10033419, “Blocking NS3–NS4B interaction inhibits dengue virus in non-human primates” (Nature, 2023)
# “And” between values parts separate entries of the source, which are not always exact repeats. Equal values may be shown once.
# Assays:
# Test in all cases: Viraemia/survival study
# Type in all cases: in vivo, AG129 mice
# DENV-1/West Pac = conditions: for Viral RNA copies/mL [Log10]: Fig. 2i Viraemia DENV-1, BID, individual animals 1-5, LOD is 1.7
# Method: (§1) The UTMB is an Association for the Assessment and Accreditation of Laboratory and Care (AAALAC) International accredited facility. All of the procedures were reviewed and approved by the UTMB Institutional Animal Care and Use Committee. […] Male and female AG129 mice (n = 10 per group; aged 6–8 weeks) were housed at a maximum of 5 mice per cage in individually ventilated cages with food and water provided ad libitum. Allocation to experimental groups was performed randomly. […] Approximately 1 h after the first treatment, all of the animals were challenged by i.p. injection with 10^7 PFU DENV-1/West Pac, DENV-3/C0360/94 or DENV-4/703/4. Pretreatment with anti-flavivirus antibody 4G2 to increase disease severity by induction of ADE was not required as infection with DENV-1/West Pac, DENV-3/C0360/94 or DENV-4/703/4 in our models leads to severe disease (requiring euthanasia after >20% loss of body weight). Each treatment group was subdivided into two smaller groups (groups A and B; n = 5 each). Blood was collected on day 3 after infection from group A to measure viral RNA; samples were collected by retro-orbital bleed on day 3 after infection around 30 min before the morning treatment. In parallel, animals (groups A and B) were followed for lethality throughout the experiment. Viral RNA isolation from plasma and RT–qPCR analysis was performed using the methods described previously.
# (§2) For the viral kinetics studies and the delayed-treatment studies, a batch approach was applied to calculate the viral load AUC using the PΚ R package. This package estimates a mean AUC value for settings in which the animals are measured at varying timepoints within a treatment group. […] The AUC was calculated using the LOD (2.6 log10 copies per ml) as the lowest limit. […] In the delayed-treatment studies, the total viral load AUC for each of the compound-treated groups was calculated and compared with that of the vehicle-treated group. […] P values were adjusted using the Bonferroni multiple-comparison correction method. Note that P values lower than 0.0001 were rounded to 0.0001. For survival studies of DENV-1-, DENV-3- or DENV-4-infected mice, Fisher’s exact tests were used on day 6. P values were adjusted using the Bonferroni multiple-comparison correction method.
# DENV-4/703/4 = conditions: for Viral RNA copies/mL [Log10]: Fig. 2k Viraemia DENV-4, BID, individual animals 1-5, LOD is 1.7
# Method: as §1, §2
# DENV-3/C0360/94 = conditions: for Viral RNA copies/mL [Log10]: Fig. 2j Viraemia DENV-3, BID, individual animals 1-5, LOD is 1.7
# Method: as §1, §2
# [1] = 60 or 6 mg per kg per day b.i.d.
# [2] = 60 or 6 mg per kg per day b.i.d., vehicle 0%
structure (smiles),measurement,setting,value
COc1cc(N[C@H](C(=O)c2c[nH]c3ccc(OC(F)(F)F)cc23)c2ccc(Cl)cc2OC)cc(S(C)(=O)=O)c1 [JNJ-1802],viral RNA load day 3 vs vehicle,DENV-1/West Pac; [1],significantly reduced
same,survival until day 6,"DENV-1/West Pac; 60 or 6 mg per kg per day b.i.d., vehicle 20%",100%
same,Survival [%],"DENV-1/West Pac; DENV-1, 6 mg/kg/day BID, day 0 post-infection",100%
same,Survival [%],"DENV-1/West Pac; DENV-1, 6 mg/kg/day BID, day 1 post-infection",100%
same,Survival [%],"DENV-1/West Pac; DENV-1, 6 mg/kg/day BID, day 2 post-infection",100%
same,Survival [%],"DENV-1/West Pac; DENV-1, 6 mg/kg/day BID, day 3 post-infection",100%
same,Survival [%],"DENV-1/West Pac; DENV-1, 6 mg/kg/day BID, day 4 post-infection",100%
same,Survival [%],"DENV-1/West Pac; DENV-1, 6 mg/kg/day BID, day 5 post-infection",100%
same,Survival [%],"DENV-1/West Pac; DENV-1, 6 mg/kg/day BID, day 6 post-infection",100%
same,Survival [%],"DENV-1/West Pac; DENV-1, 60 mg/kg/day BID, day 0 post-infection",100%
same,Survival [%],"DENV-1/West Pac; DENV-1, 60 mg/kg/day BID, day 1 post-infection",100%
same,Survival [%],"DENV-1/West Pac; DENV-1, 60 mg/kg/day BID, day 2 post-infection",100%
same,Survival [%],"DENV-1/West Pac; DENV-1, 60 mg/kg/day BID, day 3 post-infection",100%
same,Survival [%],"DENV-1/West Pac; DENV-1, 60 mg/kg/day BID, day 4 post-infection",100%
same,Survival [%],"DENV-1/West Pac; DENV-1, 60 mg/kg/day BID, day 5 post-infection",100%
same,Survival [%],"DENV-1/West Pac; DENV-1, 60 mg/kg/day BID, day 6 post-infection",100%
same,Viral RNA copies/mL [Log10],DENV-1/West Pac; 6 mg/kg/day,6.011 copies/mL [Log10] and 6.0187 copies/mL [Log10] and 7.037 copies/mL [Log10] and 6.709 copies/mL [Log10] and 6.244 copies/mL [Log10]
same,Viral RNA copies/mL [Log10],DENV-1/West Pac; 60 mg/kg/day,4.624 copies/mL [Log10] and 4.061 copies/mL [Log10] and 4.479 copies/mL [Log10] and 4.465 copies/mL [Log10] and 4.103 copies/mL [Log10]
same,viral RNA load day 3 vs vehicle,DENV-4/703/4; [1],significantly reduced
same,survival until day 6,DENV-4/703/4; [2],100%
same,Survival [%],"DENV-4/703/4; DENV-4, 6 mg/kg/day BID, day 0 post-infection",100%
same,Survival [%],"DENV-4/703/4; DENV-4, 6 mg/kg/day BID, day 1 post-infection",100%
same,Survival [%],"DENV-4/703/4; DENV-4, 6 mg/kg/day BID, day 2 post-infection",100%
same,Survival [%],"DENV-4/703/4; DENV-4, 6 mg/kg/day BID, day 3 post-infection",100%
same,Survival [%],"DENV-4/703/4; DENV-4, 6 mg/kg/day BID, day 4 post-infection",100%
same,Survival [%],"DENV-4/703/4; DENV-4, 6 mg/kg/day BID, day 5 post-infection",100%
same,Survival [%],"DENV-4/703/4; DENV-4, 6 mg/kg/day BID, day 6 post-infection",100%
same,Survival [%],"DENV-4/703/4; DENV-4, 60 mg/kg/day BID, day 0 post-infection",100%
same,Survival [%],"DENV-4/703/4; DENV-4, 60 mg/kg/day BID, day 1 post-infection",100%
same,Survival [%],"DENV-4/703/4; DENV-4, 60 mg/kg/day BID, day 2 post-infection",100%
same,Survival [%],"DENV-4/703/4; DENV-4, 60 mg/kg/day BID, day 3 post-infection",100%
same,Survival [%],"DENV-4/703/4; DENV-4, 60 mg/kg/day BID, day 4 post-infection",100%
same,Survival [%],"DENV-4/703/4; DENV-4, 60 mg/kg/day BID, day 5 post-infection",100%
same,Survival [%],"DENV-4/703/4; DENV-4, 60 mg/kg/day BID, day 6 post-infection",100%
same,Viral RNA copies/mL [Log10],DENV-4/703/4; 6 mg/kg/day,1.7 copies/mL [Log10] and 4.048 copies/mL [Log10] and 3.88 copies/mL [Log10]
same,Viral RNA copies/mL [Log10],DENV-4/703/4; 60 mg/kg/day,1.7 copies/mL [Log10]
same,viral RNA load day 3 vs vehicle,DENV-3/C0360/94; [1],significantly reduced
same,survival until day 6,DENV-3/C0360/94; [2],100%
same,Survival [%],"DENV-3/C0360/94; DENV-3, 6 mg/kg/day BID, day 0 post-infection",100%
same,Survival [%],"DENV-3/C0360/94; DENV-3, 6 mg/kg/day BID, day 1 post-infection",100%
same,Survival [%],"DENV-3/C0360/94; DENV-3, 6 mg/kg/day BID, day 2 post-infection",100%
same,Survival [%],"DENV-3/C0360/94; DENV-3, 6 mg/kg/day BID, day 3 post-infection",100%
same,Survival [%],"DENV-3/C0360/94; DENV-3, 6 mg/kg/day BID, day 4 post-infection",100%
same,Survival [%],"DENV-3/C0360/94; DENV-3, 6 mg/kg/day BID, day 5 post-infection",100%
same,Survival [%],"DENV-3/C0360/94; DENV-3, 6 mg/kg/day BID, day 6 post-infection",100%
same,Survival [%],"DENV-3/C0360/94; DENV-3, 60 mg/kg/day BID, day 0 post-infection",100%
same,Survival [%],"DENV-3/C0360/94; DENV-3, 60 mg/kg/day BID, day 1 post-infection",100%
same,Survival [%],"DENV-3/C0360/94; DENV-3, 60 mg/kg/day BID, day 2 post-infection",100%
same,Survival [%],"DENV-3/C0360/94; DENV-3, 60 mg/kg/day BID, day 3 post-infection",100%
same,Survival [%],"DENV-3/C0360/94; DENV-3, 60 mg/kg/day BID, day 4 post-infection",100%
same,Survival [%],"DENV-3/C0360/94; DENV-3, 60 mg/kg/day BID, day 5 post-infection",100%
same,Survival [%],"DENV-3/C0360/94; DENV-3, 60 mg/kg/day BID, day 6 post-infection",100%
same,Viral RNA copies/mL [Log10],DENV-3/C0360/94; 6 mg/kg/day,1.7 copies/mL [Log10] and 2.037 copies/mL [Log10] and 2.373 copies/mL [Log10]
same,Viral RNA copies/mL [Log10],DENV-3/C0360/94; 60 mg/kg/day,1.7 copies/mL [Log10]
